Reference: patent US8338422B2, “Indolin-2-ones and aza-indolin-2-ones” (Janssen Pharmaceutica NV, priority 2007, dated 2012)

Assays:
PLK4 (h) = PLK4 (h) (Homo sapiens, UniProt O00444); assay: PLK-4 human kinase assay (SPA); type: biochemical
Summary of the method: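 Radiometric readout: 33P-labelled peptide captured on streptavidin SPA beads after EDTA stop, imaged by Leadseeker. Reaction ran 60 min at room temperature in Hepes pH 8.0 buffer. It contained 1 μM ATP with 2 nM [γ-33P]ATP, 10 μM biotinylated peptide and PLK4 (h) at 19 μg/ml.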

MDA/MB231 = assay: Cellular proliferation assay (Alamar blue), MDA/MB231; type: cell-based; details: MDA/MB231 cells, 72 hours with compound, 10% FCS
Procedure: (§1) […] functional properties of these compounds was tested in cellular proliferation assays on a panel of different cell lines in the presence of 10% FCS serum (37° C. and 5% (v/v) CO2). In a first step these cells were seeded and incubated for 24 hours in the absence of compound. In the second step the cells were incubated for 72 hours with the compounds to be tested for 72 hours. The viable cell number was finally assessed in a standard Alamar blue cell viability assay.
(§2) The viable cell number was assessed by incubation for either 4 h (HCT-116, H1299, H460) 6 h (SKOV3, HT29, U87-MG, Colo205) or 24 h (A2780, PC3, MDA-MB-231, A549, MCF-7) with Alamar blue (Resazurin 9 μg/ml, K-Ferrocyanide 90 μM K-Ferricyanide 90 μM) and the converted fluorescent product was quantified on a fluorescent plate readed (544 nm/590 nm). Effect of the compounds is calculated as of on control cells.

CDK1/CyclinB (h) = CDK1/CyclinB (h) (Homo sapiens, UniProt P06493); assay: CDK1/CyclinB human kinase assay (FRET); type: biochemical
Summary of the method: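 Z'-LYTE FRET format: 0.2 μg/ml enzyme with 2 μM Ser/Thr peptide 12 and 10 μM ATP in 50 mM Hepes pH 7.5, 10 mM MgCl2, 1 mM EGTA, 0.01% Brij-35, 60 min at room temperature. Protease development 60 min; coumarin/fluorescein emission ratio (460/538 nm, excitation 390 nm) reports phosphorylation.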

HCT-116 = assay: Cellular proliferation assay (Alamar blue), HCT-116; type: cell-based; details: HCT-116 cells, 72 hours with compound, 10% FCS
Summary of the method: (§3)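 Proliferation was assessed over 72 h of compound treatment, following 24 h of seeding without compound, under 10% FCS, 37° C. and 5% CO2. Fluorescent resazurin product was measured and compared with control cells.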

GSK3β (h) = GSK3β (h) (Homo sapiens, UniProt P49841); assay: GSK-3β human kinase assay (SPA); type: biochemical
Summary of the method: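 Radiometric SPA read-out: after EDTA stop, biotinylated 33P-labelled peptide bound streptavidin PVT beads and was imaged on Leadseeker. Reaction: 60 min, room temperature, GSK3β (h) at 1 μg/ml, 1 μM substrate peptide, 1 μM ATP with 2 nM [γ-33P]ATP, Tris pH 7.4/MgCl2/DTT buffer.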

PC-3 = assay: Cellular proliferation assay (Alamar blue), PC-3; type: cell-based; details: PC-3 cells, 72 hours with compound, 10% FCS
Procedure: as §1, §2

AuroraB (h) = AuroraB (h) (Homo sapiens, UniProt Q96GD4); assay: Aurora-B human kinase assay (SPA); type: biochemical
Summary of the method: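 Scintillation proximity assay: AuroraB (h) at 0.5 μg/ml with 3 μM biotinylated peptide, 0.5 μM ATP and 2.2 nM [γ-33P]ATP in 60 mM Hepes pH 7.5, 3 mM MgCl2, 3 mM MnCl2, 2 mM DTT. 60 min at room temperature, EDTA stop, streptavidin PVT beads read on Leadseeker.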

A2780 = assay: Cellular proliferation assay (Alamar blue), A2780; type: cell-based; details: A2780 cells, 72 hours with compound, 10% FCS
Summary of the method: as §3

U87MG = assay: Cellular proliferation assay (Alamar blue), U87MG; type: cell-based; details: U87MG cells, 72 hours with compound, 10% FCS
Procedure: as §1, §2

H1299 = assay: Cellular proliferation assay (Alamar blue), H1299; type: cell-based; details: H1299 cells, 72 hours with compound, 10% FCS
Summary of the method: as §3

Sequence of CDK1/CyclinB (h) (P06493 whole entry): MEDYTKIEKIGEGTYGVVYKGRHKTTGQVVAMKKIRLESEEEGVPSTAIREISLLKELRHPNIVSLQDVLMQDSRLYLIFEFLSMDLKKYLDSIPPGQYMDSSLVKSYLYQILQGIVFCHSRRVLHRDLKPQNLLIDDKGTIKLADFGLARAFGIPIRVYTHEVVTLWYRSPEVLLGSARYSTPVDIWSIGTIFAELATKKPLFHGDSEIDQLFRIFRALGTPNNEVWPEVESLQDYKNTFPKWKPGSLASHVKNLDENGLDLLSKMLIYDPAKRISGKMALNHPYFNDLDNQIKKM
Sequence of CDK1/CyclinB (h) (P14635 whole entry partner): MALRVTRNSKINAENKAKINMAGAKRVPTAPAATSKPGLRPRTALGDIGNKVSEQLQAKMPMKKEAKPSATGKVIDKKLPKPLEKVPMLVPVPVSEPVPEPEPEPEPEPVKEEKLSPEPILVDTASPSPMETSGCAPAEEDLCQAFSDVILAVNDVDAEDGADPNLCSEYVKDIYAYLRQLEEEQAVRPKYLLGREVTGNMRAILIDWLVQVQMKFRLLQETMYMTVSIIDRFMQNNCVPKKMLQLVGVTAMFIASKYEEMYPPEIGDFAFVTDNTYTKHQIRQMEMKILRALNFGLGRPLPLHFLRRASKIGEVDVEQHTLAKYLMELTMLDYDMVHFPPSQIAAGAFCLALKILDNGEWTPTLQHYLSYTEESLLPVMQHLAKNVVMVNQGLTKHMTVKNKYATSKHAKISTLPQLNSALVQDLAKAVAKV
Sequence of AuroraB (h) (Q96GD4 whole entry): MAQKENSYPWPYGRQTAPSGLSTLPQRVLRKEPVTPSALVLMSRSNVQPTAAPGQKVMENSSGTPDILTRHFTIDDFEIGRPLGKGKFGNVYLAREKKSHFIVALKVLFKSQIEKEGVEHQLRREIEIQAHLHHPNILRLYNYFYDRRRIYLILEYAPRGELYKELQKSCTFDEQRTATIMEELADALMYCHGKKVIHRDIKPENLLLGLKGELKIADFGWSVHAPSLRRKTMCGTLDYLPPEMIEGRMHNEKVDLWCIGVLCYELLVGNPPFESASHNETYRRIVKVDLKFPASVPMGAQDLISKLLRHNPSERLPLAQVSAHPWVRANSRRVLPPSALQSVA
Sequence of GSK3β (h) (P49841 whole entry): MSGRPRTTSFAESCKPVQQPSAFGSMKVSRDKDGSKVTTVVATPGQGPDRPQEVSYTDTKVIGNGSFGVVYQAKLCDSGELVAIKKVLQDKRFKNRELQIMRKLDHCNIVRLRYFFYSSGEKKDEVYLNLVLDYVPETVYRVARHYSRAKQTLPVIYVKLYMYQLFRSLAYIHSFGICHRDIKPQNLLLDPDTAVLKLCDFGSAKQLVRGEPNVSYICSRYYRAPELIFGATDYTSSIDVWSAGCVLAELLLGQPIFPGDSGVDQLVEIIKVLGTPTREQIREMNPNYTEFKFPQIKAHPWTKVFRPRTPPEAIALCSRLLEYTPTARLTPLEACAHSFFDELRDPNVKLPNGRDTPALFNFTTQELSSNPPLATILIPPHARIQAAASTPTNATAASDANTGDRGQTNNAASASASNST
Sequence of PLK4 (h) (O00444 whole entry): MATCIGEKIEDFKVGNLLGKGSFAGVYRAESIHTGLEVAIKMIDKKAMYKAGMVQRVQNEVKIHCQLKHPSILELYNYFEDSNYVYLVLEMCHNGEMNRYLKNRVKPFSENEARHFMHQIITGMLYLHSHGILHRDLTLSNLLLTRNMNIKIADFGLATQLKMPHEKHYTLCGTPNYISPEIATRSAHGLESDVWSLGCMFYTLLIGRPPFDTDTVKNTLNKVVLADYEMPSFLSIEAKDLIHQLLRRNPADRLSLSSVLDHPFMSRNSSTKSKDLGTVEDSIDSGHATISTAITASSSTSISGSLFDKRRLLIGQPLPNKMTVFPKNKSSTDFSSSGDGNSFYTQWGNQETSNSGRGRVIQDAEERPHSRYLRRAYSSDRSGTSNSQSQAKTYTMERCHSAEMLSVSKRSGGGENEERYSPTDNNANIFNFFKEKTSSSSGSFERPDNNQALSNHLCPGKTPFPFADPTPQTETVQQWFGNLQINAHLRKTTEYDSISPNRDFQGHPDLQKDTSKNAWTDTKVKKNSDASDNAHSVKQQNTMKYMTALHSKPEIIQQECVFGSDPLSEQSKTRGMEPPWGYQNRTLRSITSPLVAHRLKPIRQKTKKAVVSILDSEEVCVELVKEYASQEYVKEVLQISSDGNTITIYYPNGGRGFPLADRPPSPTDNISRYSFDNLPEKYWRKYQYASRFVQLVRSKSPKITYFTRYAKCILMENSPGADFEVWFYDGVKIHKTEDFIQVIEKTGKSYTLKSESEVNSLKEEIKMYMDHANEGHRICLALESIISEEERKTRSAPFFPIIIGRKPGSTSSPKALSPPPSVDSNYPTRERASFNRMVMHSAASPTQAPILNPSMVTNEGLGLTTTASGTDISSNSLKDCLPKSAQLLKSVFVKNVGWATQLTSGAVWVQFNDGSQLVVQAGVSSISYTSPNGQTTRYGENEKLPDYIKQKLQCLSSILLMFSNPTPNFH

## CN1CCCNc2ncnc3c2C(=CNc2ccc(N4CCOCC4)c(c2)OCCCC1=O)C(=O)N3 (mixture of isomers) [Compound 124]
PLK4 (h)
  PLK4 pIC50: 7.34
MDA/MB231
  pIC50 MDA/MB231: 5.37
CDK1/CyclinB (h)
  CDK1 pIC50: 7.53
HCT-116
  pIC50 HCT-116: 6.21
GSK3β (h)
  GSK3B pIC50: 7.33
PC-3
  pIC50 PC-3: 6.02
AuroraB (h)
  AuroraB pIC50: 6.13
A2780
  pIC50 A2780: 5.94
U87MG
  pIC50 U87MG: 6.16
H1299
  pIC50 H1299: 6.89

## COc1cc2cc(c1OC)OCCCCC(=O)N(C)CCNc1ncnc3c1C(=CN2)C(=O)N3 (mixture of isomers) [Compound 129]
PLK4 (h)
  PLK4 pIC50: 5.71
MDA/MB231
  pIC50 MDA/MB231: <5
CDK1/CyclinB (h)
  CDK1 pIC50: <5
HCT-116
  pIC50 HCT-116: <5
GSK3β (h)
  GSK3B pIC50: <5
PC-3
  pIC50 PC-3: <5
AuroraB (h)
  AuroraB pIC50: 5.26
A2780
  pIC50 A2780: <5
U87MG
  pIC50 U87MG: 5.42
H1299
  pIC50 H1299: 5.65

## COc1cc2cc(c1OC)OCCCCC(=O)N(C)CCCNc1ncnc3c1C(=CN2)C(=O)N3 (mixture of isomers) [Compound 134]
PLK4 (h)
  PLK4 pIC50: 6.6
MDA/MB231
  pIC50 MDA/MB231: 5.03
CDK1/CyclinB (h)
  CDK1 pIC50: 5.68
HCT-116
  pIC50 HCT-116: 5.79
GSK3β (h)
  GSK3B pIC50: 5.35
PC-3
  pIC50 PC-3: 5.44
AuroraB (h)
  AuroraB pIC50: 6.59
A2780
  pIC50 A2780: 5.07
U87MG
  pIC50 U87MG: <5
H1299
  pIC50 H1299: 5.76

## CN1CCN(c2ccc3cc2OCCCCC(=O)N(C)CCNc2ncnc4c2C(=CN3)C(=O)N4)CC1 (mixture of isomers) [Compound 135]
PLK4 (h)
  PLK4 pIC50: 6.67
MDA/MB231
  pIC50 MDA/MB231: <5
CDK1/CyclinB (h)
  CDK1 pIC50: <5
HCT-116
  pIC50 HCT-116: 5.21
GSK3β (h)
  GSK3B pIC50: 6.2
PC-3
  pIC50 PC-3: <5
AuroraB (h)
  AuroraB pIC50: <5
A2780
  pIC50 A2780: <5
U87MG
  pIC50 U87MG: <5
H1299
  pIC50 H1299: 5.31

## CN1CCN(c2ccc3cc2OCCCCC(=O)N(C)CCCNc2ncnc4c2C(=CN3)C(=O)N4)CC1 (mixture of isomers) [Compound 136]
PLK4 (h)
  PLK4 pIC50: 7.19
MDA/MB231
  pIC50 MDA/MB231: 5.55
CDK1/CyclinB (h)
  CDK1 pIC50: 5.88
HCT-116
  pIC50 HCT-116: 6.44
GSK3β (h)
  GSK3B pIC50: 7.23
PC-3
  pIC50 PC-3: 5.39
AuroraB (h)
  AuroraB pIC50: 5.55
A2780
  pIC50 A2780: 5.89
U87MG
  pIC50 U87MG: 6.54
H1299
  pIC50 H1299: 5.67

## CN1CCN(c2ccc3cc2OCCCC(=O)N(C)CCNc2ncnc4c2C(=CN3)C(=O)N4)CC1 (mixture of isomers) [Compound 137]
PLK4 (h)
  PLK4 pIC50: 7.3
MDA/MB231
  pIC50 MDA/MB231: 5.31
CDK1/CyclinB (h)
  CDK1 pIC50: 5.83
HCT-116
  pIC50 HCT-116: 6.04
GSK3β (h)
  GSK3B pIC50: 6.405
PC-3
  pIC50 PC-3: <5
AuroraB (h)
  AuroraB pIC50: ~5
A2780
  pIC50 A2780: 5.61
U87MG
  pIC50 U87MG: 5.94
H1299
  pIC50 H1299: 5.73

## CN1CCN(c2ccc3cc2OCCCCCC(=O)N(C)CCCNc2ncnc4c2C(=CN3)C(=O)N4)CC1 (mixture of isomers) [Compound 138]
PLK4 (h)
  PLK4 pIC50: 6.74
MDA/MB231
  pIC50 MDA/MB231: <5
CDK1/CyclinB (h)
  CDK1 pIC50: 5.8
HCT-116
  pIC50 HCT-116: 5.52
GSK3β (h)
  GSK3B pIC50: 6.75
PC-3
  pIC50 PC-3: <5
AuroraB (h)
  AuroraB pIC50: <5
A2780
  pIC50 A2780: 5.16
U87MG
  pIC50 U87MG: 6.05
H1299
  pIC50 H1299: <5

## CN1CCCCCC(=O)N(C)CCCNc2ncnc3c2C(=CNc2ccc(N4CCOCC4)c(c2)C1)C(=O)N3 (mixture of isomers) [Compound 139]
PLK4 (h)
  PLK4 pIC50: 6.64
MDA/MB231
  pIC50 MDA/MB231: <5
CDK1/CyclinB (h)
  CDK1 pIC50: <5
HCT-116
  pIC50 HCT-116: 5.51
GSK3β (h)
  GSK3B pIC50: 5.87
PC-3
  pIC50 PC-3: <5
AuroraB (h)
  AuroraB pIC50: <5
A2780
  pIC50 A2780: 5.08
U87MG
  pIC50 U87MG: 5.35
H1299
  pIC50 H1299: <5

## COc1ccc2cc1OCCCC(=O)N(C(C)C)CCCNc1ncnc3c1C(=CN2)C(=O)N3 (mixture of isomers) [Compound 144]
PLK4 (h)
  PLK4 pIC50: 7.03
MDA/MB231
  pIC50 MDA/MB231: 5.92
CDK1/CyclinB (h)
  CDK1 pIC50: 6.12
HCT-116
  pIC50 HCT-116: 6.32
GSK3β (h)
  GSK3B pIC50: 7.32
PC-3
  pIC50 PC-3: 6.14
AuroraB (h)
  AuroraB pIC50: 7.25
A2780
  pIC50 A2780: 5.87
U87MG
  pIC50 U87MG: 5.89
H1299
  pIC50 H1299: 6.56

## COc1ccc2cc1OCCCC(=O)N(C1CCCCC1)CCCNc1ncnc3c1C(=CN2)C(=O)N3 (mixture of isomers) [Compound 145]
PLK4 (h)
  PLK4 pIC50: 6.61
MDA/MB231
  pIC50 MDA/MB231: 5.73
CDK1/CyclinB (h)
  CDK1 pIC50: <5
HCT-116
  pIC50 HCT-116: 6.04
GSK3β (h)
  GSK3B pIC50: 6.4
PC-3
  pIC50 PC-3: 6.04
AuroraB (h)
  AuroraB pIC50: 6.41
A2780
  pIC50 A2780: 5.53
U87MG
  pIC50 U87MG: 5.45
H1299
  pIC50 H1299: 6.08

## COc1cc2cc(c1OC)OCCCC(=O)NCCCNc1ncnc3c1C(=CN2)C(=O)N3 (mixture of isomers) [Compound 147]
PLK4 (h)
  PLK4 pIC50: 6.95
MDA/MB231
  pIC50 MDA/MB231: <5
CDK1/CyclinB (h)
  CDK1 pIC50: 6.91
HCT-116
  pIC50 HCT-116: 5.90
GSK3β (h)
  GSK3B pIC50: 6.5
PC-3
  pIC50 PC-3: 5.42
AuroraB (h)
  AuroraB pIC50: 6.6
A2780
  pIC50 A2780: 5.37
U87MG
  pIC50 U87MG: 5.35
H1299
  pIC50 H1299: 5.97

## COc1cc2cc(c1OC)OCC(=O)N(C)CCCCNc1ncnc3c1C(=CN2)C(=O)N3 (mixture of isomers) [Compound 150]
PLK4 (h)
  PLK4 pIC50: <5
MDA/MB231
  pIC50 MDA/MB231: <5
CDK1/CyclinB (h)
  CDK1 pIC50: <5
HCT-116
  pIC50 HCT-116: <5
GSK3β (h)
  GSK3B pIC50: <5
PC-3
  pIC50 PC-3: <5
AuroraB (h)
  AuroraB pIC50: 5.23
A2780
  pIC50 A2780: <5
U87MG
  pIC50 U87MG: <5
H1299
  pIC50 H1299: <5
